Assay results published in US6534524B1, “Indazole compounds and pharmaceutical compositions for inhibiting protein kinases, and methods for their use” (Agouron Pharmaceuticals, Inc., priority 1999, dated 2003).

Key:
[1] = target: unphosphorylated VEGF-R2Δ50 (FLVK) (Homo sapiens, UniProt P35968, DEL940-989/E990V); assay: VEGF-R2 coupled spectrophotometric assay, unphosphorylated VEGF-R2Δ50 (FLVK); settings: FLVK Ki, Table 1
[2] = tested on: human umbilical vein endothelial cells (HUVEC); assay: HUVEC proliferation assay (VEGF-stimulated, MTT); format: cell-based; settings: Homo sapiens, HUVEC, + albumin; read-out: HUVEC + albumin IC50
[3] = Determination of inhibitor concentration in mouse plasma after intraperitoneal and oral dosing; format: in vivo; settings: PO, 25 mg/kg; for concentration at 7 h: female, vehicle PEG400:H2O pH 2.3 30:70, read-out: Cmin (7 hr conc.)
Method: Blood collection was via ocular bleed at 0.5, 1, 4 hr with the final time point, 7 hour, via intracardiac puncture. The blood was centrifuged to collect plasma, which was then stored at −80° C. until analysis. Samples were prepared for analysis using an internal standard and sodium hydroxide. After vortexing, ethyl acetate was added and mixed for 15-20 minutes at ambient temperature. […] The samples were then analyzed via HPLC or LC-MS. Compound levels were quantitated by generating a standard curve of known compound concentration in mouse plasma.

[4] = vehicle PEG400:H2O pH 2.3 30:70

Sequence of unphosphorylated VEGF-R2Δ50 (FLVK) (P35968 with tags, fused parts or gaps DEL940-989/E990V limits assumed): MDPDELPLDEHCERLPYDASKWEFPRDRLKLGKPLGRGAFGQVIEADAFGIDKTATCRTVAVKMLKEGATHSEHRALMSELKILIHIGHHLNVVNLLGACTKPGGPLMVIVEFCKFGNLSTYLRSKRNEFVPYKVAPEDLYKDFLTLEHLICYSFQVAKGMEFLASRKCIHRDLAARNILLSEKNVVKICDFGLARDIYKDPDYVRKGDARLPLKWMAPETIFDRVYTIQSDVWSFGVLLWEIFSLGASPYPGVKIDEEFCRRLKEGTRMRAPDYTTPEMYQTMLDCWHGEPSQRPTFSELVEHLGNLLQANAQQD

## COc1cc(-c2ccc3c(-c4cc5ccccc5[nH]4)n[nH]c3c2)ccc1O [Example 2(d), 3-(1H-Indol-2-yl)-6-(3-methoxy-4-hydroxy-phenyl)-1H-indazole]
[1]
  Ki: 3.7 nM

## Oc1ccc(-c2ccc3c(-c4cc5ccccc5o4)n[nH]c3c2)cc1OCc1ccccc1 [Example 2(e), 3-(Benzofuran-2-yl)-6-(3-benzyloxy-4-hydroxy-phenyl)-1H-indazole]
[1]
  Ki: 40 nM

## Cc1cnc(C(=O)Nc2cccc(Oc3ccc4c(/C=C/c5ccccc5)n[nH]c4c3)c2)s1 [Example 5(a), 5-Methyl-thiazole-2-carboxylic Acid {3-(3-Styryl-1H-indazol-6-yloxy)-phenyl]-amide]
[1]
  Ki: 0.03 nM

## COCOc1ccc(Oc2ccc3c(/C=C/c4ccccc4)n[nH]c3c2)cc1 [Example 8(b), 3-(E-Styryl)-6-[4-(methoxymethoxy)phenoxy]-1H-indazole]
[1]
  Ki: 72 nM

## Oc1ccc(Oc2ccc3c(/C=C/c4ccccc4)n[nH]c3c2)cc1 [Example 9(b), 3-(E-Styryl)-6-[4-hydroxyphenoxy]-1H-indazole]
[1]
  Ki: 24 nM

## CN(c1cccc(NC(=O)OCc2ccccc2)c1)c1ccc2c(/C=C/c3ccccc3)n[nH]c2c1 [Example 12(c), {3-[Methyl-(3-styryl-1H-indazol-6-yl)-amino]-phenyl}-carbamic Acid Benzyl Ester]
[1]
  Ki: 1.6 nM

## CN(c1ccccc1)c1ccc2c(/C=C/c3ccccc3)n[nH]c2c1 [Example 14, Methyl-phenyl-(3-styryl-1H-indazol-6-yl)-amine]
[1]
  Ki: 15 nM

## CN(c1cccc(NC(=O)c2cccc(C(F)(F)F)c2)c1)c1ccc2c(/C=C/c3ccc4c(c3)OCO4)n[nH]c2c1 [Example 16(d), N-(3-{[3-(2-Benzo[1,3]dioxol-5-yl-vinyl)-1H-indazol-6-yl]-methyl-amino}-phenyl)-3-trifluoromethyl-benzamide]
[1]
  Ki: 0.43 nM

## CC(=O)c1cccc(C(=O)Nc2cccc(N(C)c3ccc4c(/C=C/c5ccc6c(c5)OCO6)n[nH]c4c3)c2)c1 [Example 16(e), 3-Acetyl-N-(3-{[3-(2-benzo[1,3]dioxol-5-yl-vinyl)-1H-indazol-6-yl]-methyl-amino}-phenyl)-benzamide]
[1]
  Ki: 1.3 nM

## Nc1cccc(C(=O)c2ccc3c(/C=C/c4ccccc4)n[nH]c3c2)c1 [Example 18, (3-Amino-phenyl)-(3-styryl-1H-indazol-6-yl)-methanone]
[1]
  Ki: 12.5 nM

## O=C(c1cccc(NC(=O)c2cc(Cl)ccn2)c1)c1ccc2c(/C=C/c3ccccc3)n[nH]c2c1 [Example 19(n), 6-[3-(4-Chloropyridin-2-ylcarboxamido)benzoyl]-3-E-styryl-1H-indazole]
[1]
  Ki: 0.54 nM

## CNC(C(=O)Nc1cccc(C(=O)c2ccc3c(/C=C/c4ccccc4)n[nH]c3c2)c1)c1ccccc1 (stereo not drawn) [Example 19(p), 6-[3-(2-Methylamino-2-phenylacetamido)benzoyl]-3-E-styryl-1H-indazole]
[1]
  Ki: 1.5 nM

## O=C(NCc1ccncc1)c1ccccc1Sc1ccc2c(/C=C/c3ccccn3)n[nH]c2c1 [Example 35(p), 6-[2-((Pyrid-4-yl)methylcarbamoyl)phenylsulfanyl]-3-E-[2-(pyridin-2-yl)ethenyl]-1H-indazole]
[2]
  IC50: > 30 nM
[3]; [4]
  AUClast: 1435 ng·h/mL
  plasma half-life (T1/2): 1.3 h
[3]
  concentration at 7 h: 5 ng/mL

## Cc1cc(C(=O)Nc2cc(Nc3ccc4c(/C=C/c5ccccn5)n[nH]c4c3)c(F)cc2C)n(C)n1 [Example 48(b), 6N-(5-((1,3-Dimethyl-1H-pyrazol-5-yl)carboxanddo)-2-fluoro-4-methylphenyl)aminol-3-E-[2-(pyridin-2-yl)ethenyl]-1H-indazole]
[2]
  IC50: ~8 nM
[3]; [4]
  AUClast: 2191 ng·h/mL
  plasma half-life (T1/2): 4 h
[3]
  concentration at 7 h: 136 ng/mL

## Cc1cc(C(=O)Nc2cc(Nc3ccc4c(/C=C/c5ccccn5)n[nH]c4c3)ccc2C)n(C)n1 [Example 49(b), 6-[N-(3-((1,3-Dimethyl-1H-pyrazol-5-yl)carboxamido)-4-methylphenyl)amino]-3-E-[2-(pyridin-2-yl)ethenyl]-1H-indazole]
[2]
  IC50: ~10 nM
[3]; [4]
  AUClast: 33750 ng·h/mL
  Cmax: 5000 ng/mL
[3]
  concentration at 7 h: 5000 ng/mL
